Mass density and refractive index data for 5 compounds are collected here from the NIST ThermoML archive (doi:10.1016/j.jct.2012.10.028).

± gives the expanded uncertainty stated by the source.

As usually defined, the mass density is the mass of a sample divided by its volume. For orientation: refractive index means the speed of light in vacuum divided by its phase velocity in the sample.

The conditions of series [1]: 101.33 kPa, Liquid, Vibrating tube method.
Series [2] is described as follows: refractive index (Na D-line) (dimensionless). Particulars: 298.2 K; 101.33 kPa; Liquid; Standard Abbe refractometry.

Consider `CCCCC(CC)CO` (centres undefined) [2-ethyl-1-hexanol], for which the mass density in series [1] (298.2 K) is reported as 830.57 ± 0.31 kg/m3. For the same compound, in series [2], the refractive index is 1.4293 ± 0.0005.

`CC(=O)OCC(C)C` [2-methylpropyl ethanoate]: in series [1] (293.15 K), the mass density is given as 866.58 ± 0.31 kg/m3. Besides, the refractive index in series [2] amounted to 1.3878 ± 0.0005.

Consider `O=C1CCCCC1` [cyclohexanone], for which the mass density in series [1] (298.2 K) is given as 943.04 ± 0.32 kg/m3. The refractive index in series [2] was 1.4503 ± 0.0005.

Take `CCCCCCCCO` [octan-1-ol]: in series [1] (298.2 K), the mass density worked out at 824.1 ± 0.31 kg/m3. The refractive index in series [2] is given as 1.427 ± 0.0005.

Take `O` [water]: in series [2], the refractive index came to 1.3325 ± 0.0005.
